The record followed here is patent US9060955B2, “Transdermal therapeutic system with crystallization-inhibiting protective film (release liner)” (Bayer Intellectual Property GmbH, priority 2010, dated 2015).

Each structure is given as a SMILES string.

The data set in a line: Solubility of GSD in the active-ingredient-containing matrix. The class given is physicochemical.

Consider `C#C[C@]1(O)C=C[C@H]2[C@@H]3CCC4=CC(=O)CC[C@@H]4[C@H]3CC[C@@]21CC` [GSD, gestodene], for which the “Solubility in the active-ingredient-containing matrix” value is on record as “ca. 2%”.
